Measurements from patent US5672715A, “Herbicidal substituted 3-aryl-pyrazoles” (Monsanto Company, priority 1995, dated 1997).
Where “and” joins values, the source holds several entries; their conditions need not be identical. Equal entries are not always repeated.

Assays:
Type in all cases: in vivo
Soybean [1] = assay: pre-emergence herbicide test; conditions: 0.25 lb/A
Protocol: (§1) Topsoil was placed in an aluminum pan and compacted to a depth of 1.3 to 1.6 cm from the top of the pan. On the top of the soil was placed a predetermined number of seeds of each of several monocotyledonous and dicotyledonous annual plant species and/or vegetative propagules of various perennial plant species. The pan was then level filled with a cover layer of topsoil to which was added a known amount of active ingredient either prior to or after application of the cover layer. The active ingredient was dissolved or suspended in an organic solvent, e.g., acetone, or water as carrier for application to the cover layer. The pans were moved to a greenhouse bench where they were thereafter watered from below as needed to give adequate moisture for germination and growth. In some cases, an initial overhead irrigation of 1/4 inch of water was applied immediately after treatment.
(§2) Approximately 14 days after seeding and treating, the pans were observed and the results (% inhibition) were recorded.
(§3) The tables below summarize the results of the pre-emergence herbicidal activity tests of compounds of this invention tested with warm season plants (Tables 2a-2d) and cool season plants (Tables 3a and 3b). The herbicidal rating shown in these tables is the percent inhibition of each plant species. The plant species usually regarded as weeds are identified in the tables by single letter headings and crop species identified by two letter headings both headings being above the columns in accordance with the following legend: […]

Common Chickweed [2] = assay: pre-emergence herbicide test; conditions: pre-emergence, 0.25 lb/A; read-out: % plant inhibition
Protocol: as §1, §2, §3

Wheat [3] = assay: pre-emergence herbicide test; conditions: 0.25 lb/A
Protocol: as §1, §2, §3

Wild Oats [4] = assay: pre-emergence herbicide test; conditions: 0.25 lb/A; for inhibition at 280.212 g/ha: Avena fatua, pre-emergence, read-out: % plant inhibition
Protocol: as §1, §2, §3

Downy Brome [5] = assay: pre-emergence herbicide test; conditions: 0.25 lb/A; for inhibition at 280.212 g/ha: Bromus tectorum, pre-emergence, read-out: % plant inhibition
Protocol: as §1, §2, §3

Giant Foxtail [6] = assay: pre-emergence herbicide test; conditions: Setaria faberi, pre-emergence, 0.25 lb/A; read-out: % plant inhibition
Protocol: as §1, §2, §3

Blackgrass [7] = assay: pre-emergence herbicide test; conditions: Alopecurus myosuroides, pre-emergence, 0.25 lb/A; read-out: % plant inhibition
Protocol: as §1, §2, §3

Rape [8] = assay: pre-emergence herbicide test; conditions: 0.25 lb/A; for inhibition at 280.212 g/ha: pre-emergence, read-out: % plant inhibition
Protocol: as §1, §2, §3

Corn [9] = assay: pre-emergence herbicide test; conditions: 0.25 lb/A
Protocol: as §1, §2, §3

Barnyardgrass [10] = assay: pre-emergence herbicide test; conditions: Echinochloa crus-galli, pre-emergence, 0.25 lb/A; read-out: % plant inhibition
Protocol: as §1, §2, §3

Morning Glory [11] = assay: pre-emergence herbicide test; conditions: 0.25 lb/A
Protocol: as §1, §2, §3

Green Foxtail [12] = assay: pre-emergence herbicide test; conditions: Setaria viridis, pre-emergence; 0.25 lb/A; read-out: % plant inhibition
Protocol: as §1, §2, §3

Birdseye Speedwell [13] = assay: pre-emergence herbicide test; conditions: pre-emergence, 0.25 lb/A; read-out: % plant inhibition
Protocol: as §1, §2, §3

Bedstraw Catchweed [14] = assay: pre-emergence herbicide test; conditions: 0.25 lb/A; for inhibition at 280.212 g/ha: Galium aparine, pre-emergence, read-out: % plant inhibition
Protocol: as §1, §2, §3

Soybean [15] = assay: post-emergence herbicide test; conditions: Glycine max, post-emergence, 0.25 lb/A; read-out: % plant inhibition
Excerpt: (§4) Topsoil was placed in aluminum pans having holes in the bottom and compacted to a depth of 1.3 to 1.6 cm from the top of the pan. A predetermined number of seeds of each of several dicotyledonous and monocotyledonous annual plant species and/or vegetative propagules for the perennial plant species were placed on the soil and pressed into the soil surface. The seeds and/or vegetative propagules were covered with soil and leveled. The pans were then placed on a bench in the greenhouse and watered either from overheard irrigation or by subirrigation as needed. After the plants reach the desired age (two to three weeks), each pan, is removed individually to a spraying chamber and sprayed by means of an atomizer, operating at a spray pressure of 170.3 kPa […] at the application rates noted. In the spray solution was an amount of an emulsifying agent mixture to give a spray solution or suspension which contains about 0.4% by volume of the emulsifier. The spray solution or suspension contained a sufficient amount of the candidate chemical in order to give application rates of the active ingredient corresponding to those shown in Tables 4 and 5, while applying a total amount of solution or suspension equivalent to 1870 L/Ha (200 gallons/acre). […] The post-emergent herbicidal activity shown in these tables is the percent inhibition of each plant species. Testing with warm season and cool season plants is shown in tables 4a-4d and […], respectively.

Common Chickweed [16] = assay: post-emergence herbicide test; conditions: post-emergence, 0.25 lb/A; read-out: % plant inhibition
Excerpt: as §4

Wheat [17] = assay: post-emergence herbicide test; conditions: Triticum aestivum, post-emergence, 0.25 lb/A; read-out: % plant inhibition
Excerpt: as §4

Wild Oats [18] = assay: post-emergence herbicide test; conditions: Avena fatua, post-emergence, 0.25 lb/A; read-out: % plant inhibition
Excerpt: as §4

Downy Brome [19] = assay: post-emergence herbicide test; conditions: Bromus tectorum, post-emergence, 0.25 lb/A; read-out: % plant inhibition
Excerpt: as §4

Velvetleaf [20] = assay: post-emergence herbicide test; conditions: 0.25 lb/A; for inhibition at 280.212 g/ha: Abutilon theophrasti, post-emergence, read-out: % plant inhibition
Excerpt: as §4

Cocklebur [21] = assay: post-emergence herbicide test; conditions: Xanthium strumarium, post-emergence, 0.25 lb/A; read-out: % plant inhibition
Excerpt: as §4

Seedling Johnsongrass [22] = assay: post-emergence herbicide test; conditions: 0.25 lb/A; for inhibition at 280.212 g/ha: Sorghum halepense, post-emergence, read-out: % plant inhibition
Excerpt: as §4

Giant Foxtail [23] = assay: post-emergence herbicide test; conditions: Setaria faberi, post-emergence, 0.25 lb/A; read-out: % plant inhibition
Excerpt: as §4

Blackgrass [24] = assay: post-emergence herbicide test; conditions: Alopecurus myosuroides, post-emergence, 0.25 lb/A; read-out: % plant inhibition
Excerpt: as §4

Rape [25] = assay: post-emergence herbicide test; conditions: post-emergence, 0.25 lb/A; read-out: % plant inhibition
Excerpt: as §4

Corn [26] = assay: post-emergence herbicide test; conditions: 0.25 lb/A; for inhibition at 280.212 g/ha: Zea mays, post-emergence, read-out: % plant inhibition
Excerpt: as §4

Barnyardgrass [27] = assay: post-emergence herbicide test; conditions: Echinochloa crus-galli, post-emergence, 0.25 lb/A; read-out: % plant inhibition
Excerpt: as §4

Morning Glory [28] = assay: post-emergence herbicide test; conditions: Ipomoea, post-emergence, 0.25 lb/A; read-out: % plant inhibition
Excerpt: as §4

Green Foxtail [29] = assay: post-emergence herbicide test; conditions: Setaria viridis, post-emergence, 0.25 lb/A; read-out: % plant inhibition
Excerpt: as §4

Birdseye Speedwell [30] = assay: post-emergence herbicide test; conditions: 0.25 lb/A
Excerpt: as §4

Bedstraw Catchweed [31] = assay: post-emergence herbicide test; conditions: 0.25 lb/A
Excerpt: as §4

Velvetleaf [32] = assay: pre-emergence herbicide test; conditions: 0.25 lb/A
Protocol: as §1, §2, §3

Cocklebur [33] = assay: pre-emergence herbicide test; conditions: 0.25 lb/A
Protocol: as §1, §2, §3

Seedling Johnsongrass [34] = assay: pre-emergence herbicide test; conditions: Sorghum halepense, pre-emergence, 0.25 lb/A; read-out: % plant inhibition
Protocol: as §1, §2, §3

Cc1c(-c2cc(C(=O)O)c(Cl)cc2F)nn(C)c1C(F)(F)F [Compound 2, 2-Chloro-5-[1,4-dimethyl-5-(trifluoromethyl)-1H-pyrazol-3-yl]-4-fluorobenzoic acid]
% plant inhibition (Soybean [1]): 5% and 0% | inhibition at 280.212 g/ha (Common Chickweed [2]): 60% | inhibition at 280.212 g/ha (Wheat [3]; Triticum aestivum, pre-emergence, read-out: % plant inhibition): 7% | inhibition at 280.212 g/ha (Wild Oats [4]): 15% | inhibition at 280.212 g/ha (Downy Brome [5]): 25% | inhibition at 280.212 g/ha (Giant Foxtail [6]): 0% | inhibition at 280.212 g/ha (Blackgrass [7]): 15% | inhibition at 280.212 g/ha (Rape [8]): 20% | inhibition at 280.212 g/ha (Corn [9]; Zea mays, pre-emergence, read-out: % plant inhibition): 0% | inhibition at 280.212 g/ha (Barnyardgrass [10]): 0% | % plant inhibition (Morning Glory [11]): 30% | inhibition at 280.212 g/ha (Morning Glory [11]; Ipomoea, pre-emergence, read-out: % plant inhibition): 35% | inhibition at 280.212 g/ha (Green Foxtail [12]): 25% | inhibition at 280.212 g/ha (Birdseye Speedwell [13]): 55% | inhibition at 280.212 g/ha (Bedstraw Catchweed [14]): 50% | inhibition at 280.212 g/ha (Soybean [15]): 20% | inhibition at 280.212 g/ha (Common Chickweed [16]): 70% | inhibition at 280.212 g/ha (Wheat [17]): 0% | inhibition at 280.212 g/ha (Wild Oats [18]): 0% | inhibition at 280.212 g/ha (Downy Brome [19]): 0% | inhibition at 280.212 g/ha (Velvetleaf [20]): 85% | inhibition at 280.212 g/ha (Cocklebur [21]): 70% | inhibition at 280.212 g/ha (Seedling Johnsongrass [22]): 20% | inhibition at 280.212 g/ha (Giant Foxtail [23]): 0% | inhibition at 280.212 g/ha (Blackgrass [24]): 10% | inhibition at 280.212 g/ha (Rape [25]): 0% | inhibition at 280.212 g/ha (Corn [26]): 3% | inhibition at 280.212 g/ha (Barnyardgrass [27]): 15% | inhibition at 280.212 g/ha (Morning Glory [28]): 45% | inhibition at 280.212 g/ha (Green Foxtail [29]): 15% | inhibition at 280.212 g/ha (Birdseye Speedwell [30]; post-emergence, read-out: % plant inhibition): 80% | inhibition at 280.212 g/ha (Bedstraw Catchweed [31]; Galium aparine, post-emergence, read-out: % plant inhibition): 50%

Cc1c(-c2cc(C(=O)OC(C)C)c(Cl)cc2F)nn(C)c1C(F)(F)F [Compound 8, 2-Chloro-5-[1,4-dimethyl-5-(trifluoromethyl)-1H-pyrazol-3-yl]-4-fluorobenzoic acid, 1-methylethyl ester]
inhibition at 280.212 g/ha (Common Chickweed [2]): 100% | % plant inhibition (Wheat [3]): 0% | % plant inhibition (Wild Oats [4]): 100% | inhibition at 280.212 g/ha (Wild Oats [4]): 95% | % plant inhibition (Downy Brome [5]): 99% | inhibition at 280.212 g/ha (Downy Brome [5]): 100% | % plant inhibition (Velvetleaf [32]): 100% | inhibition at 280.212 g/ha (Velvetleaf [32]; Abutilon theophrasti, pre-emergence, read-out: % plant inhibition): 98% | % plant inhibition (Cocklebur [33]): 80% and 75% and 99% and 85% | inhibition at 280.212 g/ha (Seedling Johnsongrass [34]): 100% | inhibition at 280.212 g/ha (Giant Foxtail [6]): 100% | inhibition at 280.212 g/ha (Blackgrass [7]): 100% | % plant inhibition (Rape [8]): 100% and 90% | inhibition at 280.212 g/ha (Rape [8]): 98% | % plant inhibition (Corn [9]): 85% and 90% and 70% and 100% | inhibition at 280.212 g/ha (Barnyardgrass [10]): 100% | % plant inhibition (Morning Glory [11]): 100% | inhibition at 280.212 g/ha (Green Foxtail [12]): 100% | inhibition at 280.212 g/ha (Birdseye Speedwell [13]): 100% | % plant inhibition (Bedstraw Catchweed [14]): 100% | inhibition at 280.212 g/ha (Bedstraw Catchweed [14]): 90% | % plant inhibition (Velvetleaf [20]): 99% | inhibition at 280.212 g/ha (Velvetleaf [20]): 90% | % plant inhibition (Seedling Johnsongrass [22]): 90% | inhibition at 280.212 g/ha (Seedling Johnsongrass [22]): 70% | % plant inhibition (Corn [26]): 20% | inhibition at 280.212 g/ha (Corn [26]): 15% | % plant inhibition (Birdseye Speedwell [30]): 55% | % plant inhibition (Bedstraw Catchweed [31]): 60% and 95%
